Experimental data published in patent publication US20050070480A1, “Peptide arginals and methods for treating disseminated intravascular coagulation” (priority 2001, published 2005).
Where two headings read alike, the source gives them in different places.

Assays:
clot-bound thrombin = clot-bound thrombin (Homo sapiens, UniProt P00734); test: Enzyme inhibition in platelet-rich plasma clots, chromogenic substrate Tos-Gly-Pro-Arg-pNA; type: biochemical; conditions: for IC50: clot-bound thrombin, platelet-rich plasma clot
Experimental: (§1) Tos-Gly-Pro-Arg-pNA (S1) for thrombin and Moc-D-Chg-Gly-Arg-pNA (S2) for factor Xa, as published (Bajusz, S. et al.: PCT Pub. No. WO97/46576) briefly. The assays were carried out at room temperature in glass tubes and 96-well microtiter plates.
(§2) Solutions, (i) Buffer A: 0.1 M sodium phosphate/0.05 M NaCl (pH 8.5). (ii) Inhibitors: 0.1, 1.0 and 10 mg/ml solutions in buffer A containing 0.02% human albumin. (iii) Substrates: 1 mM of S1 and 2 mM of S2 in distilled water.
(§3) (b) Preparation of plasma clots. Platelet rich plasma samples (200 μl) placed in glass tubes were incubated at room temperature with 80 μl 40 mM CaCl2 for 60 min. The clots were washed with 2 ml aliquots of saline (0.9% NaCl) with gentle agitation to remove unbound enzymes In case of successful washing the optical density of the reaction mixture of wash and S1 is less than 5% of the control. The plasma clot thus obtained was kept under saline in the tube until use.
(§4) (c) Assessment of the enzyme inhibition in the clots. After removal of saline, the plasma clot was incubated at 37° C. with 400 μl inhibitor (or buffer A as negative control) for 5 min. and with 100 μl substrate S1 or S3 for 30 min., then the reaction was stopped with 100 μl 50% acetic acid. 150 μl portions of the reaction mixtures were placed in the wells of a microtiter plate and read at 405 nm (ELISA READER 800, Bio-Tek Instruments Inc. Winooski, Vt., USA). IC50 values were generated from the extinction data graphically.

plasmin (PL) = plasmin (PL) (Homo sapiens, UniProt P00747); test: Fibrin plate assay, plasmin; type: biochemical; conditions: reduction of lysed area to 50% of control, read-out: LA50 PL
Chain of plasmin (PL) (P00747 581-810 limits assumed, species assumed): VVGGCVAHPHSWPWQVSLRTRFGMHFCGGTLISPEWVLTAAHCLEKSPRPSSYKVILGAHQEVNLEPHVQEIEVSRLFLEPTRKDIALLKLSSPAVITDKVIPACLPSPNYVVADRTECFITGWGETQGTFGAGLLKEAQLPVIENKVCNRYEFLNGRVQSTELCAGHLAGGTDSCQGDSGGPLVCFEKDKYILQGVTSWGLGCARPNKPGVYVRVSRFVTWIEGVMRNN
Chain of plasmin (PL) (P00747 97-580 limits assumed, species assumed): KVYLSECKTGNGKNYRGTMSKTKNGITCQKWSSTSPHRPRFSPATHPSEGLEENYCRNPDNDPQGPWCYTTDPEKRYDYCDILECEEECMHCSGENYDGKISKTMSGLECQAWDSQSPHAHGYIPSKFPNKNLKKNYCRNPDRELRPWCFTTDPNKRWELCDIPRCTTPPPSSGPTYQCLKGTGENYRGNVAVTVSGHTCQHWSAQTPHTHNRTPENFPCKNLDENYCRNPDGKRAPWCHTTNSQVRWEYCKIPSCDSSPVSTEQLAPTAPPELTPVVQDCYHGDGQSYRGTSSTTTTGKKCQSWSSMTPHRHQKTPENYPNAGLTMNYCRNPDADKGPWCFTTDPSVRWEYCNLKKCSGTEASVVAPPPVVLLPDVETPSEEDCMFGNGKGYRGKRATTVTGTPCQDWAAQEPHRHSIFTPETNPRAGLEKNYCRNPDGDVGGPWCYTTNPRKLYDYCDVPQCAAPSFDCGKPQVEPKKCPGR
Description: (§5) Inhibitory effects of the compounds of the invention on plasmin (PL) and plasmin generation by plasminogen (Plogen) activators, such as tissue plasminogen activator (tPA), and urokinase (UK) were examined by the fibrin plate assay. (See e.g., Bagdy, D., Barabás, E., Bajusz, S., and Széll, E., Thromb. Haemostas., 67:325-330 (1992); Barabás, E. Szell, E. and Bajusz, S, Blood Coagulation and Fibrinolysis, 4: 243 (1993)) The results are shown in Table 1, Column C. With a few exceptions the analogues are somewhat more inhibitory than Efegatran against the three fibrinolytic enzymes.

[1] = test system: endotoxin-treated rabbits; type: in vivo, rabbit
LPS-treated rats = test: Survival in a rat model for disseminated intravascular coagulation; type: in vivo; conditions: for Effectiveness on survival compared with reference C (in words): LPS-treated rats; for Survival rate %: rats, 30 mg/kg LPS i.v.
urokinase (UK) = urokinase (UK) (Homo sapiens, UniProt P00749); test: Fibrin plate assay, urokinase; type: biochemical; conditions: for IC50: reduction of lysed area to 50% of control, urokinase, read-out: LA50 UK
Description: as §5

citrated human plasma [2] = test: Activated partial thromboplastin time (APTT) plasma clotting assay; type: biochemical
Experimental: (§6) The inhibitory effect on plasma coagulation was evaluated in the thrombin time (TT), activated partial thromboplastin time (APTT) and prothrombin time (PT) assays by using citrated human plasma as substrate [Bagdy, D. et. al.: Thromb. Haemostas. 67, 325 (1992)]. The TT assay measures the inhibition of a single step, the coagulation of fibrinogen on the action of exogenous thrombin (final concentration 2.5 NIH U/ml). Clotting of plasma in the APTT and PT assays was induced by recalcification. Endogenous thrombin generated could theoretically be present at a final concentration as high as 50 NIH U/ml (APTT, PT). These assays detect the sum of inhibitory actions on fibrin formation and thrombin generation, which includes several proteolytic reactions mediated by either thrombin or other enzymes, e.g. fXa. Anticlotting activity is expressed in CT2, which is the concentration (nM) required to double the clotting time.

citrated human plasma [3] = test: Prothrombin time (PT) plasma clotting assay; type: biochemical
Experimental: as §6

clot-bound factor Xa = clot-bound factor Xa (Homo sapiens, UniProt P00742); test: Enzyme inhibition in platelet-rich plasma clots, chromogenic substrate Moc-D-Chg-Gly-Arg-pNA; type: biochemical
Chain of clot-bound factor Xa (P00742 235-488 limits assumed): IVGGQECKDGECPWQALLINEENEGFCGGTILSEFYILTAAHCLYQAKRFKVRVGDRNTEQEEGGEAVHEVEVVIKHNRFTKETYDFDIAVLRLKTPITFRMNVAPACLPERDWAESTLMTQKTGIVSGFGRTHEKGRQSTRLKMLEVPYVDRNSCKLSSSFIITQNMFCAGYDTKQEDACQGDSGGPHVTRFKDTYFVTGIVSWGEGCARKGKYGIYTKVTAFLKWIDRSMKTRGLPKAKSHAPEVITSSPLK
Chain of clot-bound factor Xa (P00742 41-179 limits assumed): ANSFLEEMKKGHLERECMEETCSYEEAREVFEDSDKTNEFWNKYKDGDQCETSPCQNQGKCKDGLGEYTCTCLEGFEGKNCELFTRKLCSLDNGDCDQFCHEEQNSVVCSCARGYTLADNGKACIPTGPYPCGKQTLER
Experimental: as §1, §2, §3, §4

[4] = molecular target: tissue plasminogen activator (tPA) (Homo sapiens, UniProt P00750); test: Fibrin plate assay, tissue plasminogen activator; type: biochemical; conditions: reduction of lysed area to 50% of control, read-out: LA50 tPA
Chain of tissue plasminogen activator (tPA) (P00750 36-562, species assumed): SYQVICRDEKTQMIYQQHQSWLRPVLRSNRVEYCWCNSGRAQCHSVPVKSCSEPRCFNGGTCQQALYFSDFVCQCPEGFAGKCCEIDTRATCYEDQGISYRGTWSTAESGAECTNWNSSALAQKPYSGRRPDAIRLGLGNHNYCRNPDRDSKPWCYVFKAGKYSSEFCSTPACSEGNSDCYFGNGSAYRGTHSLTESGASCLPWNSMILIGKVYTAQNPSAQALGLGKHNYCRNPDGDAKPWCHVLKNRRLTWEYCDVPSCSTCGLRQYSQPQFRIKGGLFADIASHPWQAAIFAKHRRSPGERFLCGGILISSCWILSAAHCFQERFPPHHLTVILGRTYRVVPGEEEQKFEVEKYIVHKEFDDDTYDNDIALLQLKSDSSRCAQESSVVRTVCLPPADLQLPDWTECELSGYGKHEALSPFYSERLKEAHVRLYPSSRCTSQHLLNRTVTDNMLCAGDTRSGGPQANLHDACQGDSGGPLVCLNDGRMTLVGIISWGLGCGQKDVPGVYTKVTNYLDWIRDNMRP
Description: as §5

[5] = test system: citrated human plasma (exogenous thrombin); test: Thrombin time (TT) plasma clotting assay; type: biochemical; conditions: thrombin 2.5 NIH U/ml
Experimental: as §6

endotoxin-treated rats = test: Rat model for disseminated intravascular coagulation (fibrin deposition, platelet count, FDP)
Experimental: The effects of compound 1 of the invention and two control anticoagulants, Efegatran (C) and heparin (H) on such phenomena were examined in endotoxin-treated rats [Ford, A. J. and Longridge, D. J.: Br. J. Pharmacol. 110, Suppl.
Male rats were treated with an i.v. bolus injection of 10 mg/kg endotoxin. It was followed by i.v. infusion of saline or the test compounds for four hours. Of compounds 1 and 3, 0.25 mg/kg was given as an initial bolus injection followed by an 0.25 mg/kg/h i.v. infusion for four hours. Heparin (H) was applied similarly, 50 IU/kg as an initial bolus injection followed by an 50 IU/kg/h i.v. infusion for four hours. Control group of animals was treated with 0.9% saline.
The deposition of ^125I-fibrin was investigated in selected organs (liver and kidney. ^125I-fibrinogen was injected 30 min. prior to endotoxin injection. The radioactivities in the tissue samples were measured in a gamma counter (Wallac Wizard 1470). Microthrombi formation in the organs was assessed using the ratio of organ ^125I activity to injected total ^125I activity, defined as the microthrombi index. Changes in this parameter are expressed in percent compared to saline group.
Number of platelet count was determined in an automatic appliance (Sysmex F-800) and related to control values.
Determination of FDP (fibrin degradation products) by Aggristin (Ristocetin) precipitation assay. […]

[6] = endotoxin-treated rabbits, 0.25 mg/kg/h infusion, 2 hrs
[7] = endotoxin-treated rabbits, 0.25 mg/kg/h infusion, 4 hrs
[8] = endotoxin-treated rabbits, 0.5 mg/kg/h infusion, 2 hrs
[9] = endotoxin-treated rabbits, 0.5 mg/kg/h infusion, 4 hrs
[10] = 0.75 mg/kg bolus + infusion, 0 hours
[11] = 0.75 mg/kg bolus + infusion, 4 hours
[12] = 0.75 mg/kg bolus + infusion, 5 hours
[13] = 0.75 mg/kg bolus + infusion, 6 hours
[14] = 0.75 mg/kg bolus + infusion, 7 hours
[15] = 0.75 mg/kg bolus + infusion, 8 hours
[16] = 1.5 mg/kg bolus + infusion, 0 hours
[17] = 1.5 mg/kg bolus + infusion, 4 hours
[18] = 1.5 mg/kg bolus + infusion, 5 hours
[19] = 1.5 mg/kg bolus + infusion, 6 hours
[20] = 1.5 mg/kg bolus + infusion, 7 hours
[21] = 1.5 mg/kg bolus + infusion, 8 hours

| SMILES | Inhibition of clot-bound thrombin compared with Efegatran (in words) (clot-bound thrombin) | IC50 (clot-bound thrombin) [µM] | IC50 (plasmin (PL)) [µM] | Effectiveness on survival compared with reference C (in words) (LPS-treated rats) | Survival rate % (LPS-treated rats; [10]) [%] | Survival rate % (LPS-treated rats; [11]) [%] | Survival rate % (LPS-treated rats; [12]) [%] | Survival rate % (LPS-treated rats; [13]) [%] | Survival rate % (LPS-treated rats; [14]) [%] | Survival rate % (LPS-treated rats; [15]) [%] | Survival rate % (LPS-treated rats; [16]) [%] | Survival rate % (LPS-treated rats; [17]) [%] | Survival rate % (LPS-treated rats; [18]) [%] | Survival rate % (LPS-treated rats; [19]) [%] | Survival rate % (LPS-treated rats; [20]) [%] | Survival rate % (LPS-treated rats; [21]) [%] | IC50 (urokinase (UK)) [µM] | CT2 APTT (concentration required for doubling the clotting time) (citrated human plasma [2]) [nM] | CT2 PT (concentration required for doubling the clotting time) (citrated human plasma [3]) [nM] | IC50 (clot-bound factor Xa) [µM] | other results |
| --- | --- | --- | --- | --- | --- | --- | --- | --- | --- | --- | --- | --- | --- | --- | --- | --- | --- | --- | --- | --- | --- |
| CCOC(=O)N[C@H](CC1CCCCCC1)C(=O)N1CCC[C@H]1C(=O)N[C@H](C=O)CCCNC(=N)N [Compound 1, ethoxycarbonyl-D-cycloheptylalanyl-L-prolyl-L-arginine aldehyde] | surpass Efegatran | 0.103 | 18 | more effective than reference C | 100 | 100 | 100 | 100 | 90 | 70 | 100 | 100 | 100 | 100 | 100 | 100 | 14 | 331 | 1839 | 0.118 | Effect on lethality of endotoxin-treated rabbits (in words) ([1]; compared with endotoxin alone): significantly reduce the lethality; Lethality %, 2 hrs [1, 6]: 0%; Lethality no. died/treated animals, 2 hrs [1, 6]: 0/19; Lethality %, 4 hrs [1, 7]: 16%; Lethality no. died/treated animals, 4 hrs [1, 7]: 3/19; Lethality %, 2 hrs [1, 8]: 0%; Lethality no. died/treated animals, 2 hrs [1, 8]: 0/12; Lethality %, 4 hrs [1, 9]: 17%; Lethality no. died/treated animals, 4 hrs [1, 9]: 2/12; Survival rate % (LPS-treated rats; 1.0 mg/kg bolus + infusion, 0 hours): 100%; Survival rate % (LPS-treated rats; 1.0 mg/kg bolus + infusion, 4 hours): 100%; Survival rate % (LPS-treated rats; 1.0 mg/kg bolus + infusion, 5 hours): 100%; Survival rate % (LPS-treated rats; 1.0 mg/kg bolus + infusion, 6 hours): 100%; Survival rate % (LPS-treated rats; 1.0 mg/kg bolus + infusion, 7 hours): 90%; Survival rate % (LPS-treated rats; 1.0 mg/kg bolus + infusion, 8 hours): 90%; IC50 [4]: 10 µM; CT2 TT (concentration required for doubling the clotting time) [5]: 147 nM; DIC-inhibiting potential (in words) (endotoxin-treated rats): more pronounced than that of either heparin or Efegatran |
| N=C(N)NCCC[C@@H](C=O)NC(=O)[C@@H]1CCCN1C(=O)[C@H](O)CC1CCCCCC1 [Compound 3, D-cycloheptyllactyl-L-prolyl-L-arginine aldehyde] | surpass Efegatran | 0.095 | 21 | more effective than reference C | 100 | 100 | 100 | 100 | 100 | 92 | 100 | 100 | 100 | 100 | 100 | 92 | 85 | 281 | 1082 | 0.117 | Effect on lethality of endotoxin-treated rabbits (in words) ([1]; rabbit, in vivo): significantly reduce the lethality; Lethality %, 2 hrs ([1]; rabbit, in vivo, 0.25 mg/kg): 0%; Lethality %, 4 hrs ([1]; rabbit, in vivo, 0.25 mg/kg): 18%; Lethality no. died/treated animals, 2 hrs ([1]; rabbit, in vivo, 0.25 mg/kg): 0/22; Lethality no. died/treated animals, 4 hrs ([1]; rabbit, in vivo, 0.25 mg/kg): 4/22; Survival rate % (LPS-treated rats; 0.5 mg/kg bolus + infusion, 0 hours): 100%; Survival rate % (LPS-treated rats; 0.5 mg/kg bolus + infusion, 4 hours): 100%; Survival rate % (LPS-treated rats; 0.5 mg/kg bolus + infusion, 5 hours): 100%; Survival rate % (LPS-treated rats; 0.5 mg/kg bolus + infusion, 6 hours): 100%; Survival rate % (LPS-treated rats; 0.5 mg/kg bolus + infusion, 7 hours): 100%; Survival rate % (LPS-treated rats; 0.5 mg/kg bolus + infusion, 8 hours): 80%; Activity against UK compared with Efegatran (in words) (urokinase (UK)): almost equiactive with Efegatran; IC50 [4]: 10 µM; CT2 TT (concentration required for doubling the clotting time) [5]: 86 nM |
